Data set [1] deals with Mus musculus. Nature of the data set: Net log cell kill was determined after injecting 12.5 mg/kg intraperitoneally in CD2F1 mice. The format is functional. The note with it: route intraperitoneal.
In data set [2] the test system is Mus musculus. Nature of the data set: Ratio of treated to that of untreated tumor-bearing control animals at 25 mg/kg intraperitoneally in CD2F1 mice was determined. The format is functional. The note with it: route intraperitoneal.
The test system of data set [3] is Mus musculus. The data set can be described thus: Toxicity day survivors was determined by the ratio of animals survived to that of test animals at 25 mg/kg intraperitoneally in CD2F1 mice; 6/6. The format is organism-based. Also on record: dose 25 mg/kg, route intraperitoneal. The note with it: in vivo, ip.
Data set [4] relates to Mus musculus. The data set can be described thus: Ratio of treated to that of untreated tumor-bearing control animals at 12.5 mg/kg intraperitoneally in CD2F1 mice was determined. The note with it: route intraperitoneal. The format is functional.
The subject of data set [5] is Mus musculus. The data set can be described thus: Net log cell kill was determined after injecting 6.25 mg/kg intraperitoneally in CD2F1 mice. The note with it: route intraperitoneal. The format is functional.
For data set [6], the system named is Mus musculus. Nature of the data set: Toxicity day survivors was determined by the ratio of animals survived to that of test animals at 3.16 mg/kg intraperitoneally in CD2F1 mice; 6/6. The arrangement: dose 3.16 mg/kg, route intraperitoneal. The format is organism-based. The note with it: in vivo, ip.
Data set [7] has as its system Mus musculus. The data set can be described thus: Toxicity day survivors was determined by the ratio of animals survived to that of test animals at 6.25 mg/kg intraperitoneally in CD2F1 mice; 6/6. The note with it: in vivo, ip. Also on record: dose 6.25 mg/kg, route intraperitoneal. The format is organism-based.
The test system of data set [8] is Mus musculus. The data set can be described thus: Body weight change of test animals to that of control was determined after injection at 12.5 mg/kg intraperitoneally in CD2F1 mice. The format is functional. The note with it: route intraperitoneal.
Data set [9] concerns Mus musculus. Nature of the data set: Ratio of treated to that of untreated tumor-bearing control animals at 3.16 mg/kg intraperitoneally in CD2F1 mice was determined. The note with it: route intraperitoneal. The format is functional.
Data set [10] has as its system Mus musculus. The data set can be described thus: Body weight change of test animals to that of control was determined after injection at 3.16 mg/kg intraperitoneally in CD2F1 mice. The format is functional. The note with it: route intraperitoneal.
Data set [11] relates to Mus musculus. Nature of the data set: Toxicity day survivors was determined by the ratio of animals survived to that of test animals at 100 mg/kg intraperitoneally in CD2F1 mice; 3/6. The note with it: in vivo, ip. The format is organism-based. Also on record: dose 100 mg/kg, route intraperitoneal.
For data set [12], the system named is Mus musculus. Nature of the data set: Body weight change of test animals to that of control was determined after injection at 6.25 mg/kg intraperitoneally in CD2F1 mice. The format is functional. The conditions noted are these: route intraperitoneal.
In data set [13] the test system is Mus musculus. The data set can be described thus: Ratio of treated to that of untreated tumor-bearing control animals at 6.25 mg/kg intraperitoneally in CD2F1 mice was determined. The format is functional. The conditions noted are these: route intraperitoneal.
Data set [14] has as its system Mus musculus. The data set can be described thus: Net log cell kill was determined after injecting 3.16 mg/kg intraperitoneally in CD2F1 mice. The format is functional. The conditions noted are these: route intraperitoneal.
The subject of data set [15] is Mus musculus. The data set can be described thus: Net log cell kill was determined after injecting 25 mg/kg intraperitoneally in CD2F1 mice. The note with it: route intraperitoneal. The format is functional.
The test system of data set [16] is Mus musculus. The data set can be described thus: Toxicity day survivors was determined by the ratio of animals survived to that of test animals at 50 mg/kg intraperitoneally in CD2F1 mice; 6/6. The conditions noted are these: in vivo, ip. Also on record: dose 50 mg/kg, route intraperitoneal. The format is organism-based.
For data set [17], the system named is Mus musculus. The data set can be described thus: Body weight change of test animals to that of control was determined after injection at 50 mg/kg intraperitoneally in CD2F1 mice. The format is functional. The conditions noted are these: route intraperitoneal.
The subject of data set [18] is Mus musculus. Nature of the data set: Body weight change of test animals to that of control was determined after injection at 25 mg/kg intraperitoneally in CD2F1 mice. The format is functional. The conditions noted are these: route intraperitoneal.
Data set [19] deals with Mus musculus. The data set can be described thus: Toxicity day survivors was determined by the ratio of animals survived to that of test animals at 12.5 mg/kg intraperitoneally in CD2F1 mice; 6/6. The format is organism-based. Also on record: dose 12.5 mg/kg, route intraperitoneal. The note with it: in vivo, ip.
The subject of data set [20] is Mus musculus. Nature of the data set: Body weight change of test animals to that of control was determined after injection at 100 mg/kg intraperitoneally in CD2F1 mice. The format is functional. The conditions noted are these: route intraperitoneal.
Data set [21] concerns Mus musculus. The data set can be described thus: Ratio of treated to that of untreated tumor-bearing control animals at 5 mg/kg intraperitoneally in CD2F1 mice was determined. The format is functional. The note with it: route intraperitoneal.
Data set [22] relates to Mus musculus. The data set can be described thus: Toxicity day survivors was determined by the ratio of animals survived to that of test animals at 40 mg/kg intraperitoneally in CD2F1 mice; 0/6. The format is organism-based. Also on record: dose 40 mg/kg, route intraperitoneal. The conditions noted are these: in vivo, ip.
In data set [23] the test system is Mus musculus. The data set can be described thus: Toxicity day survivors was determined by the ratio of animals survived to that of test animals at 10 mg/kg intraperitoneally in CD2F1 mice; 6/6. Also on record: dose 10 mg/kg, route intraperitoneal. The format is organism-based. The conditions noted are these: in vivo, ip.
For data set [24], the system named is Mus musculus. The data set can be described thus: Net log cell kill was determined after injecting 2.5 mg/kg intraperitoneally in CD2F1 mice. The format is functional. The note with it: route intraperitoneal.
Data set [25] concerns Mus musculus. Nature of the data set: Body weight change of test animals to that of control was determined after injection at 20 mg/kg intraperitoneally in CD2F1 mice. The format is functional. The note with it: route intraperitoneal.
Data set [26] relates to Mus musculus. Nature of the data set: Ratio of treated to that of untreated tumor-bearing control animals at 10 mg/kg intraperitoneally in CD2F1 mice was determined. The format is functional. The conditions noted are these: route intraperitoneal.
The test system of data set [27] is Mus musculus. Nature of the data set: (§1) Body weight change of test animals to that of control was determined after injection at 2.5 mg/kg intraperitoneally in CD2F1 mice. The format is ADME, organism-based. The conditions noted are these: in vivo, ip. Also on record: dose 2.5 mg/kg, route intraperitoneal.
Data set [28] has as its system Mus musculus. Nature of the data set: Body weight change of test animals to that of control was determined after injection at 10 mg/kg intraperitoneally in CD2F1 mice. The format is functional. The conditions noted are these: route intraperitoneal.
Data set [29] relates to Mus musculus. Nature of the data set: Toxicity day survivors was determined by the ratio of animals survived to that of test animals at 20 mg/kg intraperitoneally in CD2F1 mice; 6/6. The format is organism-based. The arrangement: dose 20 mg/kg, route intraperitoneal. The note with it: in vivo, ip.
Data set [30] relates to Mus musculus. Nature of the data set: Ratio of treated to that of untreated tumor-bearing control animals at 2.5 mg/kg intraperitoneally in CD2F1 mice was determined. The format is functional. The conditions noted are these: route intraperitoneal.
Data set [31] deals with Mus musculus. Nature of the data set: Body weight change of test animals to that of control was determined after injection at 5 mg/kg intraperitoneally in CD2F1 mice. The conditions noted are these: route intraperitoneal. The format is functional.
In data set [32] the test system is Mus musculus. The data set can be described thus: Toxicity day survivors was determined by the ratio of animals survived to that of test animals at 5 mg/kg intraperitoneally in CD2F1 mice; 6/6. The format is organism-based. The arrangement: dose 5 mg/kg, route intraperitoneal. The note with it: in vivo, ip.
In data set [33] the test system is Mus musculus. The data set can be described thus: Net log cell kill was determined after injecting 10 mg/kg intraperitoneally in CD2F1 mice. The format is functional. The note with it: route intraperitoneal.
The subject of data set [34] is Mus musculus. Described as §1. The format is functional. The note with it: route intraperitoneal.
The subject of data set [35] is Mus musculus. Nature of the data set: Net log cell kill was determined after injecting 5 mg/kg intraperitoneally in CD2F1 mice. The format is functional. The conditions noted are these: route intraperitoneal.
Data set [36] has as its system Mus musculus. The data set can be described thus: Toxicity day survivors was determined by the ratio of animals survived to that of test animals at 2.5 mg/kg intraperitoneally in CD2F1 mice; 6/6. The conditions noted are these: in vivo, ip. The format is organism-based. Also on record: dose 2.5 mg/kg, route intraperitoneal.

Data on two compounds can be found in ChEMBL document CHEMBL1124001, “Synthesis and antileukemic activity of bis[[(carbamoyl)oxy]methyl]- substituted pyrrolo[2,1-a]isoquinolines, pyrrolo[1,2-a]quinolines, pyrrolo[2,1-a]isobenzazepines, and pyrrolo[1,2-a]benzazepines” (J Med Chem, 1988).

Take `COc1ccc2c(c1)CCn1c(C)c(COC(=O)NC(C)C)c(COC(=O)NC(C)C)c1-2`: the KE in the data set with Mus musculus [1] is given as -1.29; in the data set with Mus musculus [5], -1.51; in the data set on Mus musculus [14] it was -1.43; with Mus musculus [15] it was -1.29. In addition, the T/C with Mus musculus [2] is listed as 153%; in the data set on Mus musculus [4], 153%; in the data set on Mus musculus [9], 142%; with Mus musculus [13], 136%. In addition, the TDS with Mus musculus [3] is 6; in the data set on Mus musculus [6] it was 6; in the data set with Mus musculus [7] it was 6; in the data set on Mus musculus [11], 3; with Mus musculus [16], 6; in the data set with Mus musculus [19], 6. For the same compound, the T-C is recorded as -3 g in the data set on Mus musculus [8]; -1.1 g in the data set with Mus musculus [10]; -2.1 g in the data set on Mus musculus [12]; -6.6 g with Mus musculus [17]; -5.6 g in the data set on Mus musculus [18]; -5.3 g in the data set on Mus musculus [20].

Consider `CNC(=O)OCc1c(COC(=O)NC)c2n(c1C)-c1ccccc1CCC2`, for which the T/C was found to be 147% in the data set on Mus musculus [21], 152% with Mus musculus [26] and 154% in the data set with Mus musculus [30]. Besides, the TDS in the data set on Mus musculus [22] amounted to 0; in the data set with Mus musculus [23], 6; in the data set on Mus musculus [27], 6; in the data set on Mus musculus [29], 6; in the data set with Mus musculus [32] it was 6; in the data set with Mus musculus [36] it was 6. In addition, the KE was determined as 1.19 with Mus musculus [24], 1 with Mus musculus [33] and 0.55 in the data set on Mus musculus [35]. For the same compound, the T-C with Mus musculus [25] is given as -2.6 g; with Mus musculus [28] it was -2.2 g; in the data set with Mus musculus [31], -0.9 g; in the data set with Mus musculus [34] it was -1.7 g.

For orientation: T/C means the ratio of treated to control.
